Active and inactive are the calls of the source. The calls are words filed in the database; no cut-off is given here.
Key:
[1] = organism: Homo sapiens; experiment: Angiogenic activity in HUVEC12 assessed as induction of cell proliferation at 10 uM after 24 hrs by MTT assay; type: functional
[2] = system: Chorioallantoic membrane; experiment: Angiogenic activity in chick embryo chorioallantoic membrane at 10 uL/egg after 2 days; type: functional, tissue-based; conditions: Gallus gallus

Compound | Activity [1] | Activity [2]
O=c1cc(-c2ccccc2)oc2cc(O)cc(O)c12 | Active | –
O=c1cc(-c2ccccc2)oc2cc(OCCO[N+](=O)[O-])cc(O)c12 | Active | Active
O=c1cc(-c2ccccc2)oc2cc(OCCCCO[N+](=O)[O-])cc(O)c12 | Active | Active
O=c1cc(-c2ccccc2)oc2cc(OCCCCCCO[N+](=O)[O-])cc(O)c12 | Active | Active
